{"source": "ChEMBL document CHEMBL1157374", "about": "“Lack of an effect of antibiotic treatment on prolonged detection of chlamydial DNA in murine genital tract infection” (2007)", "key": {"Chlamydia trachomatis [1]": {"tested_on": "Chlamydia trachomatis", "experiment": "Antimicrobial activity against Chlamydia trachomatis Nigg infected in BALB/c mouse genital tract infection model assessed as recovery of inclusion forming units from cervicovaginal swabs at 3 mg/ml, ip administered on days 10 to 24 days postinfection", "assay_type": "functional, organism-based"}, "Chlamydia trachomatis [2]": {"tested_on": "Chlamydia trachomatis", "experiment": "Effect on chlamydial plasmid DNA of Chlamydia trachomatis Nigg infected in BALB/c mouse genital tract infection model at 3 mg/ml, ip administered on days 10 to 24 days postinfection by nested PCR", "assay_type": "functional, organism-based"}, "Chlamydia trachomatis [3]": {"tested_on": "Chlamydia trachomatis", "experiment": "Antimicrobial activity against Chlamydia trachomatis Nigg infected in BALB/c mouse genital tract infection model assessed as severe oviduct dilation at 3 mg/ml, ip administered on days 10 to 24 days postinfection", "assay_type": "functional"}, "Chlamydia trachomatis [4]": {"tested_on": "Chlamydia trachomatis", "experiment": "Antimicrobial activity against Chlamydia trachomatis Nigg infected in BALB/c mouse genital tract infection model assessed as recovery of inclusion forming units from cervicovaginal swabs at 3 mg/ml, ip administered on days 42 to 56 days postinfection", "assay_type": "functional, organism-based"}, "Chlamydia trachomatis [5]": {"tested_on": "Chlamydia trachomatis", "experiment": "Antimicrobial activity against Chlamydia trachomatis Nigg infected in BALB/c mouse genital tract infection model assessed as severe oviduct dilation at 3 mg/ml, ip administered on days 42 to 56 days postinfection", "assay_type": "functional"}, "Chlamydia trachomatis [6]": {"tested_on": "Chlamydia trachomatis", "experiment": "Effect on chlamydial plasmid DNA of Chlamydia trachomatis Nigg infected in BALB/c mouse genital tract infection model at 3 mg/ml, ip administered on days 42 to 56 days postinfection by nested PCR", "assay_type": "functional, organism-based"}}, "note": "Calls of active or inactive are those of the source. The calls are words filed in the database; no cut-off is given here.", "data": [{"smiles": "C[C@H]1c2cccc(O)c2C(=O)C2=C(O)[C@]3(O)C(=O)C(C(N)=O)=C(O)[C@@H](N(C)C)[C@@H]3[C@@H](O)[C@@H]21.O", "note": "[DOXYCYCLINE]", "values": [{"measurement": "Activity", "setting": "Chlamydia trachomatis [1]", "result": "Active"}, {"measurement": "Activity", "setting": "Chlamydia trachomatis [2]", "result": "inactive"}, {"measurement": "Activity", "setting": "Chlamydia trachomatis [3]", "result": 30, "unit": "%"}, {"measurement": "Activity", "setting": "Chlamydia trachomatis [4]", "result": "Active"}, {"measurement": "Activity", "setting": "Chlamydia trachomatis [5]", "result": 80, "unit": "%"}, {"measurement": "Activity", "setting": "Chlamydia trachomatis [6]", "result": "inactive"}]}]}
